Data taken from patent publication US6713057B1, “Compositions and methods for modulating serum cholesterol” (The Johns Hopkins University, priority 1999, dated 2004).

Tests used:
[1] = test system: SREBP-1; assay: Indirect immunofluorescence of SREBP-1 subcellular localization; type: cell-based, human; settings: 30 minutes after initiating treatment; TNF-α 10 ng/ml, sphingomyelinase 100 mUnits, C2-ceramide 10 μM
Protocol: FIGS. 5A-5D show indirect immunofluorescence of SREBP-1. FIGS. 5A-5D are discussed in more detail as follows. SREBP-1 was visualized with rabbit polyclonal antibodies directed towards the N-terminal DNA binding domain which is common to both the precursor and mature forms. Cells were maintained in media supplemented with 1 μg/ml 25-hydroxycholesterol and 15 μg/ml cholesterol for 24 hours before the experiment. Immunofluorescence was performed as described. All magnifications are 40× and all photographs were taken of samples that were fixed 30 minutes after initiating treatment. FIG. 5A) Control cells, FIG. 5B) Cells treated with TNF-α (10 ng/ml), FIG. 5C) Cells treated with sphingomyelinase (100 mUnits), FIG. 5D) Cells treated with C2-ceramide (10 μM).
Cultured HH-25 cells were grown on coverslips and treated as described. After treatment, the cells were washed 3×5 minutes with PBS containing 1 mM MgCl2 and 0.1 mM CaCl2 (solution A). The cells were fixed with 3% paraformaldehyde in solution A for 10 minutes and permeabilized with 0.5% Triton X-100 in solution A for 6 minutes at room temperature. The coverslips were then washed 3×5 minutes with solution A.
Primary antibody (anti-SREBP1) was used at a dilution of […] in PBS and applied for 1 hour with gentle shaking. The cells were washed as above and a FITC conjugated anti-rabbit IgG secondary antibody, was applied for ½ hour according to the instructions of the manufacturer. The coverslips were washed, mounted on microscope slides and were viewed and photographed at the indicated magnification on a Zeiss Axiovert 25 fluorescence microscope.

[2] = test system: SREBP-1; assay: SREBP-1 maturation (Western immunoblot) in hepatocytes transfected with N-SMase plasmids or incubated with r-N-SMase; type: cell-based, human; settings: C-2 ceramide positive control
Protocol: The present example was conducted to address whether the overexpression of N-SMase employing two separate N-SMase plasmid DNA(PHH-1, representing the entire nucleotide sequence in N-SMase cDNA and PHH-11, representing nucleotide sequence 862-1414) would increase the maturation of SREBP-1 and LDL receptor mRNA expression in a human hepatocyte cell line […]. Cells transfected with mock plasmid cDNA(PSV-SPOT) served as a control and cells incubated with C-2 ceramide previously shown to induce SREBP-1 maturation served as a positive control.
Briefly, human hepatocytes(1×10^4) were seeded in sterile 100 mm^2 in medium containing 10% dialyzed, heat inactivated fetal bovine serum without antibiotics. Twenty four hours later medium was replaced with 9 ml of fresh serum free medium. After incubation for 30 min at 37° C. 5-40 μg of the plasmid DNA in 1 ml of a CaCl2 solution (mixed with equal volume of 0.25-2.5 M CaCl2 solution in HEPES buffer and HEPES buffer pH 6.95). Following gentle mixing incubation of cells was continued for 5-24 hr at 37° C. The transfection reaction was terminated by removing the medium and washing the cells with serum free medium. Next, fresh serum supplemented medium was added and incubation was continued for an additional 24 hr and cells were harvested in appropriate buffer centrifuged and stored frozen until further analysis. […]

[3] = test system: LDL receptor mRNA; assay: LDL receptor mRNA, Northern analysis in human hepatocytes; type: cell-based; settings: TNF-α treatment
Protocol: Briefly, human hepatocytes(1×10^4) were seeded in sterile 100 mm^2 in medium containing 10% dialyzed, heat inactivated fetal bovine serum without antibiotics. Twenty four hours later medium was replaced with 9 ml of fresh serum free medium. After incubation for 30 min at 37° C. 5-40 μg of the plasmid DNA in 1 ml of a CaCl2 solution (mixed with equal volume of 0.25-2.5 M CaCl2 solution in HEPES buffer and HEPES buffer pH 6.95). Following gentle mixing incubation of cells was continued for 5-24 hr at 37° C. The transfection reaction was terminated by removing the medium and washing the cells with serum free medium. Next, fresh serum supplemented medium was added and incubation was continued for an additional 24 hr and cells were harvested in appropriate buffer centrifuged and stored frozen until further analysis. Cell pellets were homogenized and suitable aliquots subjected to Western immunoblot analysis as described below and in Examples 1-7 above. Total RNA was isolated from another batch of cells transfected as above and subjected to Northern analysis employing a ^32P labeled LDL receptor consensus sequence. The autoradiographs were developed and photographed.

[4] = test system: neutral sphingomyelinase (N-SMase); assay: Neutral sphingomyelinase assay after TNF-α stimulation of HH-25 cells; type: cell-based, human; settings: TNF-α 10 ng/ml
Protocol: FIG. 1 illustrates the effect of TNF-α on neutral sphingomyelinase activity and is explained in more detail as follows: Confluent cultures of HH-25 cells were washed once with PBS and incubated in serum free media for 30 minutes prior to the addition of TNF-α (10 ng/ml). At the indicated time, cells were harvested in PBS, pelleted and frozen. Cells were subsequently lysed as described in materials and methods. N-SMase assays were performed in duplicate as described. Error bars represent ±one standard deviation from the mean.
After stimulation with TNF-α for the indicated time intervals, the cells were washed once with 5 ml PBS and harvested. The pellet was stored frozen at −70° C. and resuspended in 0.5 ml buffer B (100 mM Tris HCl pH 7.4, 0.1% triton X-100, 1 mM EDTA and protease inhibitors). The cell suspension was sonicated 3 times (3 second bursts) using a probe sonicator and centrifuged at 500×g at 4° C. for 5 minutes. The supernatant was used as the enzyme source.
100 μg of protein was assayed for neutral sphingomyelinase activity in a buffer consisting of 5 mM Tris HCl pH 7.4, 0.1% triton X-100, 0.1 mg BSA, 5 mM MgCl2, and […] [^14C] sphingomyelin (12,000 dpm). The assay was incubated at 37° C. for 1.5 hours and terminated with the addition of 1 ml of 10% TCA. […]

maturation of SREBP-1 in hepatocytes incubated with protein or ceramide ([2]; r-N-SMase 0.4, 0.8, 2, and 4 μg/ml)	LDL receptor mRNA level [3]	Compound	subcellular localization of SREBP-1 (staining pattern) [1]	maturation of SREBP-1 compared to mock cDNA transfected cells ([2]; PHH1 5,10,20,40 μg plasmid DNA/dish, PHH11 20 μg/dish)	return of N-SMase activity to control levels [4]	maximal increase in neutral sphingomyelinase activity ([4]; 15 minutes after addition)
markedly increased	–	CCCCCCCCCCCCC/C=C/[C@@H](O)[C@H](CO)NC(C)=O [C2-ceramide, N-acetylsphingosine, reference compound]	intense nuclear staining and little extra-nuclear staining	markedly increased	–	–
–	induces LDL receptor mRNA level	TNF-α	intense nuclear staining and little extra-nuclear staining	–	≤ 1 h	2.5 fold
